Assays:
Experiment in all cases: HPPD activity assay, mutant enzyme
Type in all cases: biochemical
[1] = target: T1, Hordeum HPPD (SEQ ID: 2) F404L (Hordeum vulgare, UniProt O48604, A164G/F404L/R146V/R147D/R148G); settings: Table 16, normalized to Hordeum wild-type
T1 construct: His tag (N); made in house; host or cells: E. coli BL21 (DE3)
Description: (§1) HPPD produces homogentisic acid and CO2 from 4-hydroxyphenylpyruvate (4-HPP) and O2. The activity assay for HPPD is based on the analysis of homogentisic acid by reversed phase HPLC.
(§2) The assay mixture can contain 150 mM potassium phosphate buffer pH 7.0, 50 mM L-ascorbic acid, 100 μM Catalase (Sigma-Aldrich), 1 μM FeSO4 and 0.2 units of purified HPPD enzyme in a total volume of 505 μl. 1 unit is defined as the amount of enzyme that is required to produce 1 nmol of HGA per minute at 20° C.
(§3) After a preincubation of 30 min the reaction is started by adding 4-HPP to a final concentration of 0.05 mM. The reaction is allowed to proceed for 45 min at room temperature. The reaction is stopped by the addition of 50 μl of 4.5 M phosphoric acid. The sample is filtered using a […] pore size PVDF filtration device.
(§4) 5 μl of the cleared sample is analyzed on an UPLC HSS T3 column (particle size 1.8 μm, dimensions 2.1×50 mm; Waters) by isocratic elution using 90% 20 mM NaH2PO4 pH 2.2, 10% methanol (v/v).
(§5) HGA is detected electrochemically at 750 mV (mode: DC; polarity: positive) and quantified by integrating peak areas (Empower software; Waters).
(§6) Inhibitors are dissolved in DMSO (dimethylsulfoxide) to a concentration of 0.5 mM. From this stock solution serial five-fold dilutions are prepared in DMSO, which are used in the assay. The respective inhibitor solution accounts for 1% of the assay volume. […] Activities are normalized by setting the uninhibited enzyme activity to 100%. IC50 values are calculated using non-linear regression.
(§7) Purified, mutant HPPD enzymes are obtained by the methods described above. Dose response and kinetic measurements are carried out using the described HPPD activity assay. Apparent michaelis constants (Km) and maximal reaction velocities (Vmax) are calculated by non-linear regression with the software GraphPad Prism 5 (GraphPad Software, La Jolla, USA) using a substrate inhibition model. […] Weighted means (by standard error) of Km and IC50 values are calculated from at least three independent experiments.
(§8) Field performance of the optimized HPPD enzyme, which is used as a herbicide tolerance trait may depend not only on its lack of sensitivity towards HPPD inhibiting herbicides but also on its activity. To assess the potential performance of a herbicide tolerance trait a tolerance index (TI) is calculated using the following formula: […]
(§9) Easy comparison and ranking of each trait is enabled by normalizing tolerance indexes on Arabidopsis or Hordeum wild-type HPPD.

HvHPPD L320H (SEQ ID: 2) = target: T2, HvHPPD L320H (SEQ ID: 2) (Hordeum vulgare, UniProt O48604, A164G/L320H/R146V/R147D/R148G); settings: Table 16, normalized to Hordeum wild-type
T2 construct: His tag (N); made in house; host or cells: E. coli BL21 (DE3)
Description: as §1, §2, §3, §4, §5, §6, §7, §8, §9

[2] = target: T3, Arabidopsis HPPD (SEQ ID: 53) M335H, P336A (Arabidopsis thaliana, UniProt P93836, M335H/P336A); settings: Table 15, normalized to Arabidopsis wild-type
T3 construct: PCR-based site directed mutagenesis of pEXP5-NT/TOPO®-AtHPPD; His6 (N); made in house; host or cells: E. coli BL21 (DE3)
Description: as §1, §2, §3, §4, §5, §6, §7, §8, §9

HvHPPD G407C (SEQ ID: 2) = target: T4, HvHPPD G407C (SEQ ID: 2) (Hordeum vulgare, UniProt O48604, A164G/G407C/R146V/R147D/R148G); settings: Table 16, normalized to Hordeum wild-type
T4 construct: His tag (N); made in house; host or cells: E. coli BL21 (DE3)
Description: as §1, §2, §3, §4, §5, §6, §7, §8, §9

[3] = target: T5, Hordeum HPPD (SEQ ID: 2) R309K (Hordeum vulgare, UniProt O48604, A164G/R146V/R147D/R148G/R309K); settings: Table 16, normalized to Hordeum wild-type
T5 construct: His tag (N); made in house; host or cells: E. coli BL21 (DE3)
Description: as §1, §2, §3, §4, §5, §6, §7, §8, §9

[4] = target: T6, Arabidopsis HPPD (SEQ ID: 53) F381L (Arabidopsis thaliana, UniProt P93836, F381L); settings: Table 15, normalized to Arabidopsis wild-type
T6 construct: PCR-based site directed mutagenesis of pEXP5-NT/TOPO®-AtHPPD; His6 (N); made in house; host or cells: E. coli BL21 (DE3)
Description: as §1, §2, §3, §4, §5, §6, §7, §8, §9

[5] = target: T7, Arabidopsis HPPD (SEQ ID: 53) M335H, P336G (Arabidopsis thaliana, UniProt P93836, M335H/P336G); settings: Table 15, normalized to Arabidopsis wild-type
T7 construct: PCR-based site directed mutagenesis of pEXP5-NT/TOPO®-AtHPPD; His6 (N); made in house; host or cells: E. coli BL21 (DE3)
Description: as §1, §2, §3, §4, §5, §6, §7, §8, §9

[6] = target: T8, HvHPPD L320H, P321A (SEQ ID: 2) (Hordeum vulgare, UniProt O48604, L320H/P321A); settings: Table 16, normalized to Hordeum wild-type
T8 construct: His tag (N); made in house; host or cells: E. coli BL21 (DE3)
Description: as §1, §2, §3, §4, §5, §6, §7, §8, §9

[7] = target: T9, Hordeum HPPD (SEQ ID: 2) I416V (Hordeum vulgare, UniProt O48604, A164G/I416V/R146V/R147D/R148G); settings: Table 16, normalized to Hordeum wild-type
T9 construct: His tag (N); made in house; host or cells: E. coli BL21 (DE3)
Description: as §1, §2, §3, §4, §5, §6, §7, §8, §9

[8] = target: T10, Arabidopsis HPPD (SEQ ID: 53) M335H, P336A, E363Q (Arabidopsis thaliana, UniProt P93836, E363Q/M335H/P336A); settings: Table 15, normalized to Arabidopsis wild-type
T10 construct: PCR-based site directed mutagenesis of pEXP5-NT/TOPO®-AtHPPD; His6 (N); made in house; host or cells: E. coli BL21 (DE3)
Description: as §1, §2, §3, §4, §5, §6, §7, §8, §9

[9] = target: T11, Hordeum HPPD (SEQ ID: 2) L250M (Hordeum vulgare, UniProt O48604, A164G/L250M/R146V/R147D/R148G); settings: Table 16, normalized to Hordeum wild-type
T11 construct: His tag (N); made in house; host or cells: E. coli BL21 (DE3)
Description: as §1, §2, §3, §4, §5, §6, §7, §8, §9

[10] = target: T12, Arabidopsis HPPD (SEQ ID: 53) F381I (Arabidopsis thaliana, UniProt P93836, F381I); settings: Table 15, normalized to Arabidopsis wild-type
T12 construct: PCR-based site directed mutagenesis of pEXP5-NT/TOPO®-AtHPPD; His6 (N); made in house; host or cells: E. coli BL21 (DE3)
Description: as §1, §2, §3, §4, §5, §6, §7, §8, §9

T6 sequence (P93836 whole entry F381L): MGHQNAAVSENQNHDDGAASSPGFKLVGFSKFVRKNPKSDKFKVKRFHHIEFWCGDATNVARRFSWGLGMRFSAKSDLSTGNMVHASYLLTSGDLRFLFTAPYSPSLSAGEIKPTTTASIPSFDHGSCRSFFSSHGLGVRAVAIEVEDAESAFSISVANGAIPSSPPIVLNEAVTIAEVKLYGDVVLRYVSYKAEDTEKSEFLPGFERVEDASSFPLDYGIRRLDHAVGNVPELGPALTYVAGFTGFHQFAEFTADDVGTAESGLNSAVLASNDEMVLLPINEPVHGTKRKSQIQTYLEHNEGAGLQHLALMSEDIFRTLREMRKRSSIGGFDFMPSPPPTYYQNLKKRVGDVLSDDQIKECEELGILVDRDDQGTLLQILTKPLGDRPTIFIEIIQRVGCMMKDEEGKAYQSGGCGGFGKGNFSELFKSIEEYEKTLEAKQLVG
T8 sequence (O48604 whole entry R146V/R147D/R148G/A164G/L320H/P321A): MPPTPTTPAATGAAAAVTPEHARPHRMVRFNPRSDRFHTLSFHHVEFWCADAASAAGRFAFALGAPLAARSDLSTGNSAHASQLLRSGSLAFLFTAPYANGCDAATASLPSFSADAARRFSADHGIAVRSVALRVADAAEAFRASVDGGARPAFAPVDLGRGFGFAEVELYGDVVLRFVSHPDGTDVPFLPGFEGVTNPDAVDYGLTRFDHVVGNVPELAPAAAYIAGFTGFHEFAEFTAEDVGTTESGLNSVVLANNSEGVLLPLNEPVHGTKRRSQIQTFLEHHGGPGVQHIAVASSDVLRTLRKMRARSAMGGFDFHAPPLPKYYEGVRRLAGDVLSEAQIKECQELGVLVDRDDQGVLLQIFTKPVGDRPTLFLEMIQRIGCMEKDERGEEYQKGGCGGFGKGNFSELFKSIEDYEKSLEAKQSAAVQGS
T11 sequence (O48604 whole entry R146V/R147D/R148G/A164G/L250M): as the sequence (O48604 whole entry R146V/R147D/R148G/A164G/L320H/P321A) above, with L250M, H320L, A321P counted along it
T9 sequence (O48604 whole entry R146V/R147D/R148G/A164G/I416V): as the sequence (O48604 whole entry R146V/R147D/R148G/A164G/L320H/P321A) above, with H320L, A321P, I416V counted along it
T12 sequence (P93836 whole entry F381I): as the sequence (P93836 whole entry F381L) above, with L381I counted along it
T3 sequence (P93836 whole entry M335H/P336A): as the sequence (P93836 whole entry F381L) above, with M335H, P336A, L381F counted along it
T4 sequence (O48604 whole entry R146V/R147D/R148G/A164G/G407C): as the sequence (O48604 whole entry R146V/R147D/R148G/A164G/L320H/P321A) above, with H320L, A321P, G407C counted along it
T1 sequence (O48604 whole entry R146V/R147D/R148G/A164G/F404L): as the sequence (O48604 whole entry R146V/R147D/R148G/A164G/L320H/P321A) above, with H320L, A321P, F404L counted along it
T7 sequence (P93836 whole entry M335H/P336G): as the sequence (P93836 whole entry F381L) above, with M335H, P336G, L381F counted along it
T5 sequence (O48604 whole entry R146V/R147D/R148G/A164G/R309K): as the sequence (O48604 whole entry R146V/R147D/R148G/A164G/L320H/P321A) above, with R309K, H320L, A321P counted along it
T2 sequence (O48604 whole entry R146V/R147D/R148G/A164G/L320H): as the sequence (O48604 whole entry R146V/R147D/R148G/A164G/L320H/P321A) above, with A321P counted along it
T10 sequence (P93836 whole entry M335H/P336A/E363Q): as the sequence (P93836 whole entry F381L) above, with M335H, P336A, E363Q, L381F counted along it

For `Cc1nonc1NC(=O)c1ccc(S(C)(=O)=O)c(S(C)(=O)=O)c1C` [Inhibitor 1, 2-methyl-N-(4-methyl-1,2,5-oxadiazol-3-yl)-3,4-bis(methylsulfonyl)benzamide], the “Normalized tolerance index TI Inhibitor 1” value [1] was 4.6, the “Normalized tolerance index TI Inhibitor 1” value (HvHPPD L320H (SEQ ID: 2)) was 4.4 and the “Normalized tolerance index TI Inhibitor 1” value [2] was 2.4. For the same compound, the “Normalized tolerance index TI Inhibitor 1” value (HvHPPD G407C (SEQ ID: 2)) was 5, the “Normalized tolerance index TI Inhibitor 1” value [3] was 1.6 and the “Normalized tolerance index TI Inhibitor 1” value [4] was 35.2. The “Normalized tolerance index TI Inhibitor 1” value [5] was 3.6, the “Normalized tolerance index TI Inhibitor 1” value [6] was 5.3 and the “Normalized tolerance index TI Inhibitor 1” value [7] was 1.7. For the same compound, the “Normalized tolerance index TI Inhibitor 1” value [8] was 6.7, the “Normalized tolerance index TI Inhibitor 1” value [9] was 2.1 and the “Normalized tolerance index TI Inhibitor 1” value [10] was 37.
